Test results from BindingDB's records for doi:10.1016/j.bmcl.2012.07.045 (Rhône-Poulenc Rorer, 2012).

Target: Tyrosine-protein kinase SYK (Homo sapiens) (UniProt P43405)
Experiment: Inhibition of human recombinant full-length Syk using poly-GT as substrate after 40 mins by radioactive filtration assay

SMILES	IC50
Cc1ccnc(Nc2cccc(-c3ccnc(NCCO)c3)n2)c1	1870 nM
O=C(Nc1cc(Nc2cnccn2)nc(-c2ccnc(N3CCNCC3)c2)c1)c1ccccc1	28 nM
Cc1cc(C(=O)Nc2cc(Nc3cnccn3)nc(-c3ccnc(N4CCNCC4)c3)c2)n(C)n1	7 nM
Cc1ccnc(Nc2cccc(-c3ccnc(N4CCC(N)CC4)c3)n2)c1	114 nM
Nc1cc(Nc2cnccn2)nc(-c2ccnc(N3CCNCC3)c2)c1	4 nM
Cc1ccnc(Nc2cccc(-c3cccc(N)c3)n2)c1	3240 nM
CC(=O)N1CCC(C(=O)Nc2cc(Nc3cnccn3)nc(-c3ccnc(N4CCNCC4)c3)c2)CC1	5 nM
Cc1ccnc(Nc2cccc(-c3ccnc(N4CCC(N)C4)c3)n2)c1 (configuration not stated)	450 nM
Cc1ccnc(Nc2cccc(-c3ccnc(N4CCNCC4)c3)n2)c1	14 nM
Cc1ccnc(Nc2cccc(-c3cccc(NCCN)c3)n2)c1	91 nM
Cc1ccnc(Nc2cccc(-c3ccnc(NCCCN)c3)n2)c1	528 nM
Cc1ccnc(Nc2cccc(-c3cccnc3)n2)c1	2700 nM

More lines, in order of falling IC50, values ahead:

IC50	SMILES
1670 nM	Cc1ccnc(Nc2cccc(-c3cccc(CN)c3)n2)c1
200 nM	Cc1ccnc(Nc2cccc(-c3ccnc(NCCN)c3)n2)c1
160 nM	Cc1ccnc(Nc2cccc(-c3cccc(CCN)c3)n2)c1
62 nM	c1cc(Nc2cnccn2)nc(-c2ccnc(N3CCNCC3)c2)c1
43 nM	c1cc(-c2cccc(Nc3cnccn3)n2)cc(N2CCNCC2)c1
27 nM	Cc1ccnc(Nc2cccc(-c3ccnc(N4CCCNCC4)c3)n2)c1
10 nM	O=C(Nc1cc(Nc2cnccn2)nc(-c2ccnc(N3CCNCC3)c2)c1)c1ccc(C(=O)O)nc1
9 nM	O=C(Nc1cc(Nc2cnccn2)nc(-c2ccnc(N3CCNCC3)c2)c1)c1cncnc1
8 nM	Oc1ccc(CNc2cc(Nc3cnccn3)nc(-c3ccnc(N4CCNCC4)c3)c2)cc1
8 nM	O=C(O)c1ccc(C(=O)Nc2cc(Nc3cnccn3)nc(-c3ccnc(N4CCNCC4)c3)c2)cc1
6 nM	O=C(Nc1cc(Nc2cnccn2)nc(-c2ccnc(N3CCNCC3)c2)c1)c1cccnc1
4 nM	O=C(Nc1cc(Nc2cnccn2)nc(-c2ccnc(N3CCNCC3)c2)c1)C1CCNCC1
4 nM	CNc1cc(Nc2cnccn2)nc(-c2ccnc(N3CCNCC3)c2)c1
4 nM	O=C(Cc1cccnc1)Nc1cc(Nc2cnccn2)nc(-c2ccnc(N3CCNCC3)c2)c1
1.8 nM	FC(F)(F)c1ccnc(Nc2cccc(-c3ccnc(N4CCNCC4)c3)n2)c1
